Assay results as given in ChEMBL document CHEMBL5356977, “Exploration of macrocyclic peptide binders to the extracellular CRD domain of human receptor tyrosine kinase-like orphan receptor 1 (ROR1)” (Bioorg Med Chem Lett, 2024).
Each block holds one molecule with its values, some of them ahead of it. Calls of active or inactive are those of the source. No cut-off for these calls is given here. Numbered stars: 1 amine (or outer) side, 2 acyl side, 3 side chain; on linkers, the order of the positions; unused ones are H or OH. Bridge positions count the residues as written; N and C are the ends. Square brackets hold non-standard residues; d marks the D form. Peptide text beside a SMILES is read from it. X1 = CN([C@@H](CC(N)O)C(=O)[*:2])[*:1]; NMeF = CN[C@@H](Cc1ccccc1)C(=O)O; Hpg = N[C@H](C(=O)O)c1ccc(O)cc1

Key:
[1] = molecular target: T1, Inactive tyrosine-protein kinase transmembrane receptor ROR1 (Homo sapiens, UniProt Q01973); assay: Induction of ROR1 internalization in human 786-0; format: cell-based
[2] = molecular target: T1, Inactive tyrosine-protein kinase transmembrane receptor ROR1; assay: Induction of ROR1 internalization in human MIA PaCa-2; format: cell-based
[3] = molecular target: T1, Inactive tyrosine-protein kinase transmembrane receptor ROR1; assay: Binding affinity to full length human His-tagged ROR1 (937 residues ) assessed as dissociation constant by SPR analysis
[4] = molecular target: Tyrosine-protein kinase transmembrane receptor ROR2 (Homo sapiens, UniProt Q01974); assay: Binding affinity to full length human His-tagged ROR2 (943 residues ) assessed as dissociation constant by SPR analysis
[5] = molecular target: T1, Inactive tyrosine-protein kinase transmembrane receptor ROR1; assay: Binding affinity to ROR1 (unknown origin)
[6] = molecular target: T1, Inactive tyrosine-protein kinase transmembrane receptor ROR1; assay: Induction of ROR1 internalization in human 786-0 cells at 4 to 37 degreeC; format: cell-based
[7] = molecular target: T1, Inactive tyrosine-protein kinase transmembrane receptor ROR1; assay: Binding affinity to human ROR1 harbouring CRD domain at 100 nM relative to control
[8] = molecular target: T1, Inactive tyrosine-protein kinase transmembrane receptor ROR1; assay: Binding affinity to human ROR1 harbouring IGt2 domain at 100 nM relative to control
[9] = molecular target: T1, Inactive tyrosine-protein kinase transmembrane receptor ROR1; assay: Binding affinity to human ROR1 expressed in HEK293 cells by cell based assay
[10] = […] stability in mouse serum assessed as half life; format: ADME, cell-free
MIA PaCa-2 = assay: Induction of apoptosis in human MIA PaCa-2 cells assessed as activation of caspase3/7; format: functional, cell-based
[11] = Proteolytic stability in mouse serum assessed as half life; format: ADME, cell-free
[12] = molecular target: T1, Inactive tyrosine-protein kinase transmembrane receptor ROR1; assay: Induction of ROR1 internalization in human MDA-MB-231; format: cell-based

T1 sequence (Q01973 whole entry): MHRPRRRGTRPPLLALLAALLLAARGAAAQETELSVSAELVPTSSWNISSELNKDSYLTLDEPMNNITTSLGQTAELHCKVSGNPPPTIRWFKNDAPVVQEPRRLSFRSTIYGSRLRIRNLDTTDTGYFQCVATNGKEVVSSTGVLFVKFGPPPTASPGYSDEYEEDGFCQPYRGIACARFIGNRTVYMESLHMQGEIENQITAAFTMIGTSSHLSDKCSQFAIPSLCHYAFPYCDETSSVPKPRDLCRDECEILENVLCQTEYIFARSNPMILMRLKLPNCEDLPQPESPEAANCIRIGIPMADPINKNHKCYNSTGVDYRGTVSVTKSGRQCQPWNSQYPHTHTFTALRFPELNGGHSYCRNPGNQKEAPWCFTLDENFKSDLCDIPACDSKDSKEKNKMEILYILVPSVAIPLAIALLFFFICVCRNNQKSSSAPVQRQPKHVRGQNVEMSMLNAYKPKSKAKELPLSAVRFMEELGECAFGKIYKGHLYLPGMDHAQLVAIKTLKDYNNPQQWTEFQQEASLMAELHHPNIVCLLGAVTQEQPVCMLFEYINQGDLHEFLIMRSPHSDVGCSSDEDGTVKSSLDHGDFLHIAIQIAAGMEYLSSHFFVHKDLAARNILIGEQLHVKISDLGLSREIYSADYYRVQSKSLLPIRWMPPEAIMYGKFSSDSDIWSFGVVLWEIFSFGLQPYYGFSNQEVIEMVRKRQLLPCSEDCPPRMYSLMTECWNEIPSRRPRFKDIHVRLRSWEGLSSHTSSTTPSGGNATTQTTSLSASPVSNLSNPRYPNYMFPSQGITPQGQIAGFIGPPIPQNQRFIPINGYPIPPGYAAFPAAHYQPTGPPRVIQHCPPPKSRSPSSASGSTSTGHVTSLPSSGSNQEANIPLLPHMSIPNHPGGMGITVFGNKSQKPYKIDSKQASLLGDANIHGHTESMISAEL
Tyrosine-protein kinase transmembrane receptor ROR2, sequence (Q01974 whole entry): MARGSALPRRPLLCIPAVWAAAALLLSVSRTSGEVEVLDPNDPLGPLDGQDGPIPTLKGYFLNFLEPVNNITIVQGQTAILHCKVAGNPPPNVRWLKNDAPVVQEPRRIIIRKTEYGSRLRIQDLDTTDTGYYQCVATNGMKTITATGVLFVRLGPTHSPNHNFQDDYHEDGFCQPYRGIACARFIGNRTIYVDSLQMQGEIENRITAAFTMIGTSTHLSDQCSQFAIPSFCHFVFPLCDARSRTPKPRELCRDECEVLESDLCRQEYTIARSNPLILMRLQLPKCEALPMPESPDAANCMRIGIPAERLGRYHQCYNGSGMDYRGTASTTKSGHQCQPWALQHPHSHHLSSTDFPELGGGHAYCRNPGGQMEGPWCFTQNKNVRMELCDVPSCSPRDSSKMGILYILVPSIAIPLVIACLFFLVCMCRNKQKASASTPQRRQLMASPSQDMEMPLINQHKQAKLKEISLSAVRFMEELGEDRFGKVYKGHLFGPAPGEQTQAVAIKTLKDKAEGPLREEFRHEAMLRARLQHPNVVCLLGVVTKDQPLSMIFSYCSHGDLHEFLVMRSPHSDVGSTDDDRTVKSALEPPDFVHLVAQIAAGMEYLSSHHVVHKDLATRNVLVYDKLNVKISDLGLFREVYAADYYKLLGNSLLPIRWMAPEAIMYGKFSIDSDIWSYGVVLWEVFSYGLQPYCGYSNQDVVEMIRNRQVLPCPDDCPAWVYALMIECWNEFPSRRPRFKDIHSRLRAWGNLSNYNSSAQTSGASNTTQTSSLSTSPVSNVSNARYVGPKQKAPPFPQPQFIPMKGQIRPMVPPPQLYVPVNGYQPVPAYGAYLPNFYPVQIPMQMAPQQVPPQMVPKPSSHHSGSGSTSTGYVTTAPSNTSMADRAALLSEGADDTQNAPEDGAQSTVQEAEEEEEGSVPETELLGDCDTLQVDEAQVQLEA

SMILES: CC(C)C[C@@H]1NC(=O)[C@H](Cc2ccc(O)cc2)NC(=O)[C@H](Cc2ccccc2)NC(=O)CSC[C@@H](C(=O)NCC(=O)NCC(=O)NCC(=O)N[C@H](CCCCNC(=O)c2ccc3c(c2)C(=O)OC32c3ccc(O)cc3Oc3cc(O)ccc32)C(N)=O)NC(=O)[C@H](CC(C)C)NC(=O)[C@H](Cc2ccccc2)N(C)C(=O)[C@H](Cc2ccc(O)cc2)NC(=O)[C@H](Cc2c[nH]c3ccccc23)NC(=O)CNC(=O)[C@H](CO)NC(=O)[C@H](Cc2ccc(O)cc2)NC(=O)[C@H](C(C)C)NC1=O
Activity [1]: inactive
Activity [2]: inactive
Kd [3]: 34 nM
Kd [4]: > 100 nM

SMILES: CC(C)C[C@@H]1NC(=O)[C@H](Cc2ccc(O)cc2)NC(=O)[C@H](Cc2ccccc2)NC(=O)CSC[C@@H](C(=O)NCC(N)=O)NC(=O)[C@H](CC(C)C)NC(=O)[C@H](Cc2ccccc2)N(C)C(=O)[C@H](Cc2ccc(O)cc2)NC(=O)[C@H](Cc2c[nH]c3ccccc23)NC(=O)CNC(=O)[C@H](CC(=O)O)NC(=O)[C@H](Cc2ccc(O)cc2)NC(=O)[C@H](C(C)C)NC1=O ({CH2CO}-FYLVYDGWY[NMeF]LCG-NH2; thioether N-12)
IC50 [9]: 14.4 nM

SMILES: CC(C)C[C@@H]1NC(=O)[C@H](Cc2ccc(O)cc2)NC(=O)[C@H](Cc2ccccc2)NC(=O)CSC[C@@H](C(=O)NCC(N)=O)NC(=O)[C@H](C(C)C)NC(=O)[C@H](Cc2ccccc2)N(C)C(=O)[C@H](c2ccc(O)cc2)NC(=O)[C@H](Cc2c[nH]c3ccccc23)NC(=O)CNC(=O)[C@H](CC(N)=O)NC(=O)[C@H](Cc2ccc(O)cc2)NC(=O)[C@H](C(C)C)NC1=O ({CH2CO}-FYLVYNGW[Hpg][NMeF]VCG-NH2; thioether N-12)
IC50 [9]: 5.3 nM

SMILES: CC(C)C[C@@H]1NC(=O)[C@H](Cc2ccc(O)cc2)NC(=O)[C@H](Cc2ccccc2)NC(=O)CSC[C@@H](C(=O)NCC(N)=O)NC(=O)[C@H](CC(C)C)NC(=O)[C@H](Cc2ccccc2)N(C)C(=O)[C@H](Cc2ccc(O)cc2)NC(=O)[C@H](Cc2c[nH]c3ccccc23)NC(=O)CNC(=O)[C@H](CCC(N)=O)NC(=O)[C@H](Cc2ccc(O)cc2)NC(=O)[C@H](C(C)C)NC1=O ({CH2CO}-FYLVYQGWY[NMeF]LCG-NH2; thioether N-12)
IC50 [9]: 7.2 nM

SMILES: CC(C)C[C@@H]1NC(=O)[C@H](Cc2ccc(O)cc2)NC(=O)[C@H](Cc2ccccc2)NC(=O)CSC[C@@H](C(=O)NCC(N)=O)NC(=O)[C@H](CC(C)C)NC(=O)[C@H](Cc2ccccc2)N(C)C(=O)[C@H](Cc2ccc(O)cc2)NC(=O)[C@H](Cc2c[nH]c3ccccc23)NC(=O)CNC(=O)[C@H](CO)NC(=O)[C@H](Cc2ccc(O)cc2)NC(=O)[C@H](C(C)C)NC1=O ({CH2CO}-FYLVYSGWY[NMeF]LCG-NH2; thioether N-12)
half-life [10]: > 24 h
Activity (MIA PaCa-2): inactive
half-life [11]: > 24 h
Activity [6]: Active
Activity [1]: Active
Activity [7]: 104%
Activity [12]: Active
Kd [4]: 43 nM
Activity [8]: 68%

Continued, values first:

IC50 [5]: 66 nM
Activity [6]: Active
Activity [7]: 125%
Kd [3]: 22 nM
Kd [4]: > 11 nM
Activity [8]: 75%
SMILES: CC(C)C[C@@H]1NC(=O)[C@H](CC(N)O)N(C)C(=O)[C@H](Cc2ccccc2)NC(=O)CNC(=O)[C@H](Cc2ccc(O)cc2)NC(=O)[C@H](Cc2ccccc2)NC(=O)CSC[C@@H](C(N)=O)NC(=O)[C@H](Cc2c[nH]c3ccccc23)NC(=O)[C@H](Cc2ccc(O)cc2)NC1=O (some centres undefined) ({CH2CO}-FYGF[X1]LYWC-NH2; thioether N-9)

IC50 [9]: 12.3 nM
SMILES: CC(C)C[C@@H]1NC(=O)[C@H](Cc2ccc(O)cc2)NC(=O)[C@H](Cc2ccccc2)NC(=O)CSC[C@@H](C(=O)NCC(N)=O)NC(=O)[C@H](CC(C)C)NC(=O)[C@H](Cc2ccccc2)N(C)C(=O)[C@H](Cc2ccc(O)cc2)NC(=O)[C@H](Cc2c[nH]c3ccccc23)NC(=O)CNC(=O)[C@H](CO)NC(=O)[C@H](Cc2ccc(O)cc2)NC(=O)[C@H](C)NC1=O ({CH2CO}-FYLAYSGWY[NMeF]LCG-NH2; thioether N-12)

IC50 [9]: 7.2 nM
SMILES: CC(C)C[C@@H]1NC(=O)[C@H](Cc2ccc(O)cc2)NC(=O)[C@H](Cc2ccccc2)NC(=O)CSC[C@@H](C(N)=O)NC(=O)[C@H](CC(C)C)NC(=O)[C@H](Cc2ccccc2)N(C)C(=O)[C@H](Cc2ccc(O)cc2)NC(=O)[C@H](Cc2c[nH]c3ccccc23)NC(=O)CNC(=O)[C@H](CO)NC(=O)[C@H](Cc2ccc(O)cc2)NC(=O)[C@H](C(C)C)NC1=O ({CH2CO}-FYLVYSGWY[NMeF]LC-NH2; thioether N-12)
